The values below come from PMC10296061, “Inhibition of the Mitochondrial Carnitine/Acylcarnitine Carrier by Itaconate through Irreversible Binding to Cysteine 136: Possible Pathophysiological Implications” (Biomolecules, 2023).

Each structure is given as a SMILES string. Changes are numbered by the printed parent chain.

In assay [1] the target is T1, CAC C23V/C58V/C89S/C136V/C155V/C283S (C-less) mutant (Rattus norvegicus, UniProt P97521, C136V/C155V/C23V/C283S/C58V/C89S).
T1 construct: made in house; host or cells: E. coli C0214
T1 sequence (P97521 1-301 C23V/C58V/C89S/C136V/C155V/C283S): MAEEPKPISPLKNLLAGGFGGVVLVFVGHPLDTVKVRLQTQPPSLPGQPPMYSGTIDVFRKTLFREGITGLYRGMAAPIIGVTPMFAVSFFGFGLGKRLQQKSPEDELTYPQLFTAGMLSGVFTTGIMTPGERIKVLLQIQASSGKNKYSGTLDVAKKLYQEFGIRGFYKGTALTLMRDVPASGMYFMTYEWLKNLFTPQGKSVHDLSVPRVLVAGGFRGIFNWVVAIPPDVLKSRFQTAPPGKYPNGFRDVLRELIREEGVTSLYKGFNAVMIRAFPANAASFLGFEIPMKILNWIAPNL
The assay is described as follows: Transport assay in proteoliposomes, C-less CAC mutant. Type of assay: biochemical. As to the method:
(§1) As previously described, the pMW7-WTratCAC recombinant plasmid was used for over-expressing the rat CAC [22]. The overlap extension method was used to introduce the mutations; in the main time, NdeI and HindIII restriction sites were also added using appropriate primers. The PCR products were purified by the QIAEX II Gel Extraction Kit (QIAGEN) and digested with NdeI and HindIII and then ligated into the pMW7. All mutations were verified by DNA sequencing. The resulting plasmid constructs were transformed into E. coli C0214. Overexpression, inclusion body fraction preparation, and purification of the CAC proteins were performed as previously described.
(§2) As previously described, recombinant CAC (WT and mutants) and ORC1 proteins were used for proteoliposome formation. For experiments with native CAC, ORC1, or ANT proteins, rat liver mitochondria, or HeLa cell mitochondria, the latter for the CAC alone, were first purified using the standard procedure of cell disruption and differential centrifugation. Then proteins were extracted using 3% Triton X-100 and reconstituted as described for the recombinant proteins. The concentration of intraliposomal carnitine and ornithine was 15 mM and 30 mM, respectively, in all samples.
(§3) To test the transport activity of the CAC, 550 μL of proteoliposomes was passed through a Sephadex G-75 column to remove the external substrate. Six hundred μL of the turbid eluate was collected, divided into samples of 100 μL each, and used for transport measurement by the inhibitor-stop method. Transport was started by adding 0.1 mM [^3H]carnitine ([^3H]ornitine or [^3H]ATP) to proteoliposome samples and stopped with 1.5 mM NEM (N-ethylmaleimide) at the indicated time interval. In the control samples, NEM was added with the labeled substrate at time zero. Transport rates were measured in 10 min, i.e., within the initial linear range of the time course, at 25 °C. After terminating the transport reaction, the external substrate was removed by chromatography on the Sephadex G-75 column, and the intraliposomal radioactivity was measured. The experimental values were corrected by subtracting the controls.
Figure 3 Identification of residue responsible for itaconate inhibition. (a) Dose–response analysis of the Cys mutants of CAC for the inhibition by itaconate was performed. Transport activity of the WT (○), C136A (●), C155A (Δ), C23V/C58V/C89S/C155V/C283S (▲), and C23V/C58V/C89S/C136V/C155V/C283S (□) was measured by adding 0.1 mM [^3H]carnitine after treatment by itaconate at the indicated concentrations. Transport activity (µmol/10 min/mg) is: WT 1.80 ± 0.31; C136A 0.91 ± 0.10; C155A 1.00 ± 0.17; C23V/C58V/C89S/C155V/C283S 1.02 ± 0.159; C23V/C58V/C89S/C136V/C155V/C283S 0.71 ± 0.22. (b) Dose–response analysis of proteoliposomes reconstituted native (○) or recombinant ORC (●) incubated with itaconate at the indicated concentrations. Transport activity was measured by adding 0.1 [^3H]ornithine, respectively, as described in Materials and Methods. The data are expressed as a percent of the controls (no addition of itaconate) and are means ± SD from three independent experiments.
Figure 4 Lysine contribution to CAC inhibition by itaconate. Protection of PLP (pyridoxal phosphate) from inhibition by itaconate on C-less CAC was carried out. C-less mutant (i.e., C23V/C58V/C89S/C136V/C155V/C283S) was reconstituted into proteoliposomes and treated or not treated with 30 mM PLP for 10 min (“Contr” or “PLP” column, respectively). […]

Another assay concerns the target T2, CAC from HeLa cells (Homo sapiens, UniProt O43772).
T2 construct: CAC from mitochondria protein extract of HeLa cells treated with 10 mM DMI or vehicle (control) was reconstituted in proteoliposomes; endogenous in cells; host or cells: HeLa cells
T2 sequence (O43772 1-301): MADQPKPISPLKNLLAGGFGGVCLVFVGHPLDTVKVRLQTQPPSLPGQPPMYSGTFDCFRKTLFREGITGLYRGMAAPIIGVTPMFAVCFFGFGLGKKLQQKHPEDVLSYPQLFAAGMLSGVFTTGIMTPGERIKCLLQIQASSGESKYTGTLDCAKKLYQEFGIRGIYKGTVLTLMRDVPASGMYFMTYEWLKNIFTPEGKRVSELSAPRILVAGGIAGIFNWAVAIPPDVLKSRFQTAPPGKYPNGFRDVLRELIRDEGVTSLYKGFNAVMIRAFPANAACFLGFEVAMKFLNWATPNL
The experiment in a line: HeLa cells treated with DMI, CAC extracted from mitochondria and reconstituted for transport assay. Type of assay: cell-based. Conditions: 10 mM DMI, 45 min.
From the text: as §2
To test the transport activity of the CAC, 550 μL of proteoliposomes was passed through a Sephadex G-75 column to remove the external substrate. […] Transport rates were measured in 10 min, i.e., within the initial linear range of the time course, at 25 °C. After terminating the transport reaction, the external substrate was removed by chromatography on the Sephadex G-75 column, and the intraliposomal radioactivity was measured. […]
Figure 10 Effect of dimethyl itaconate (DMI) on CAC. […] Thus, the transport activity was measured for 10 min by adding to proteoliposomes 0.1 mM [^3H]carnitine. […] Transport activity in the presence or absence of DTE was measured as described in Materials and Methods. […]

Another assay concerns the target T3, recombinant CAC (WT) (Rattus norvegicus, UniProt P97521).
T3 construct: made in house; host or cells: E. coli C0214
T3 sequence (P97521 1-301): T1 sequence (P97521 1-301 C23V/C58V/C89S/C136V/C155V/C283S) with V23C, V58C, S89C, V136C, V155C, S283C
The experiment in a line: [3H]carnitine/carnitine antiport in proteoliposomes reconstituted with recombinant WT CAC. The format is biochemical. Conditions: recombinant WT CAC, pH 6.5, 10 min incubation; read-out: IC50 for inhibition of transport at pH 6.5. As to the method: as §1, §2, §3
Figure 1 Effect of itaconate on the native and recombinant mitochondrial carnitine/acylcarnitine (CAC). Dose–response analysis for itaconate inhibition was carried out using proteoliposomes reconstituted with native (○) or recombinant (●) CAC carriers. After 10 min of itaconate incubation, transport activity was started by adding 0.1 mM [^3H]carnitine and stopped after 10 min as described in Section 2. Percent of residual activity with respect to the control, without itaconate treatment, was reported. The values are the means ± SD from three independent experiments.
Figure 2 Effect of different pH on the inhibition of CAC protein by itaconate. (a) Proteoliposomes reconstituted with the recombinant CAC were incubated at various pHs (range pH 6.5–8.5) for 10 min with 10 mM itaconate. (b) Dose–response analysis of inhibition by itaconate of the recombinant CAC at pH 6.5. was performed. Proteoliposomes were incubated for 10 min at pH 6.5 with itaconate at the indicated concentrations. In both (a,b), the transport activity was measured for 10 min by adding to proteoliposomes 0.1 mM [^3H]carnitine.

By inhibition is commonly meant the percentage by which the read-out fell short of the control. With `Cc1ncc(COP(=O)(O)O)c(C=O)c1O` [PLP, pyridoxal 5′-phosphate, reference compound], the inhibition at 30000 µM in assay [1] (30 mM PLP for 10 min) was about 75%. In assay [1] (30 mM PLP, then G-75), the “reversibility of inhibition after removal of PLP by size exclusion chromatography (G-75)” value is “fully reversed”.

Usually IC50 stands for the midpoint of a concentration-inhibition curve. `C=C(CC(=O)OC)C(=O)OC` [dimethyl itaconate]: at CAC from HeLa cells, the “CAC transport activity after treatment of cells” value is listed as “strongly inhibited”. Besides, the “reversal of inhibition by DTE” value at CAC from HeLa cells (DTE in transport assay) is on record as “could not be reversed”. Also, the 50% inhibitory concentration (IC50) at recombinant CAC (WT) was 20 ± 4.9 mM.
